Earlier results on three molecules are cited in patent US11154501B2, “Method of enhancing the efficacy and stability of ingredients in suspensions” (Nanophase Technologies Corporation, priority 2019, dated 2021).

The conditions of the series: for solubility limit: in water at 25° C.

`O.O.O=c1c(O)c(-c2ccc(O)c(O)c2)oc2cc(O)cc(O)c12` [quercetin dihydrate]: the “solubility (in words)” value (in neutral water) is reported as “very poorly soluble”. Consider `C[C@@H]1O[C@@H](OC[C@H]2O[C@@H](Oc3c(-c4ccc(O)c(O)c4)oc4cc(O)cc(O)c4c3=O)[C@H](O)[C@@H](O)[C@@H]2O)[C@H](O)[C@H](O)[C@H]1O` [rutin], for which the solubility limit is on record as 0.013%. On to `NC(=O)NC1NC(=O)NC1=O` (stereo not drawn) [allantoin, (2,5-dioxo-4-imidazolidinyl) urea, reference compound], for which the solubility limit is on record as 0.5%.
